Measured values reported in article PMC11822212, “High-throughput screening identifies Aurora kinase B as a critical therapeutic target for Merkel cell carcinoma” (Nature Communications, 2025).
Where a name gives a salt, the structure may show the parent alone.

How the values were obtained:
[1] = system: VN-MCC cell lines (MCC13, MCC26, UISO); experiment: qHTS cell viability, VN-MCC cell lines as a group (mean AUC, VN.MCC.avg); type: cell-based, human; details: for VN-MCC_Avg_AUC: mean AUC of VN-MCC cell lines
MKL-2 cells (VP-MCC) = experiment: qHTS cell viability (CellTiter-Glo, 72 h; primary and follow-up small molecule screen); type: cell-based, human
[2] = system: control cell lines (HACAT, HEK293T, CRL-7250, NIH-3T3); experiment: qHTS cell viability, control cell lines as a group (mean AUC, Control.avg); type: cell-based; details: mean AUC of control cell lines
CRL-7250 cells = experiment: qHTS cell viability (CellTiter-Glo, 72 h; primary screen), control cell line; type: cell-based
HEK293T cells = experiment: as above; type: cell-based, human
NIH-3T3 cells = experiment: as above; type: cell-based, mouse
WAGA cells (VP-MCC) = experiment: qHTS cell viability (CellTiter-Glo, 72 h; primary and follow-up small molecule screen); type: cell-based, human
MCC13 cells (VN-MCC) = experiment: as above; type: cell-based, human
MCC26 cells (VN-MCC) = experiment: as above; type: cell-based, human
[3] = system: VP-MCC cell lines (WAGA, MKL-1, MKL-2); experiment: qHTS cell viability, VP-MCC cell lines as a group (mean AUC, VP.MCC.avg); type: cell-based, human; details: for VP-MCC_Avg_AUC: mean AUC of VP-MCC cell lines
MKL-1 cells (VP-MCC) = experiment: qHTS cell viability (CellTiter-Glo, 72 h; primary and follow-up small molecule screen); type: cell-based, human
[4] = system: six MCC cell lines and four control cell lines; experiment: qHTS cell viability, all 10 cell lines screened; type: cell-based
HACAT cells = experiment: qHTS cell viability (CellTiter-Glo, 72 h; primary screen), control cell line; type: cell-based, human
[5] = system: MCC cell lines (WAGA, MKL-1, MKL-2, MCC13, MCC26, UISO); experiment: qHTS cell viability, all six MCC cell lines as a group (mean AUC, MCC.avg); type: cell-based, human; details: mean AUC of six MCC cell lines
UISO cells (VN-MCC) = experiment: qHTS cell viability (CellTiter-Glo, 72 h; primary and follow-up small molecule screen); type: cell-based, human
[6] = MIPE library, 11-point DRC, sheet S2E
[7] = area under the dose-response curve, MKL-2 cells, AUC<450 = reduced viability
[8] = MIPE library, 11-point DRC, control cell line, sheet S2E
[9] = area under the dose-response curve, CRL7250 control cells, AUC<450 = reduced viability
[10] = area under the dose-response curve, HEK293T control cells, AUC<450 = reduced viability
[11] = area under the dose-response curve, NIH3T3 control cells, AUC<450 = reduced viability
[12] = area under the dose-response curve, WAGA cells, AUC<450 = reduced viability
[13] = area under the dose-response curve, MCC13 cells, AUC<450 = reduced viability
[14] = area under the dose-response curve, MCC26 cells, AUC<450 = reduced viability
[15] = area under the dose-response curve, HACAT control cells, AUC<450 = reduced viability
[16] = area under the dose-response curve, UISO cells, AUC<450 = reduced viability
[17] = NPC library, therapeutic window: Control avg AUC minus VN-MCC avg AUC
[18] = NPC library, qHTS dose-response AUC, MKL2
[19] = NPC library, qHTS dose-response AUC, CRL7250 control
[20] = NPC library, qHTS dose-response AUC, HEK293T control
[21] = NPC library, qHTS dose-response AUC, NIH3T3 control
[22] = NPC library, qHTS dose-response AUC, WAGA
[23] = NPC library, qHTS dose-response AUC, MCC13
[24] = NPC library, qHTS dose-response AUC, MCC26
[25] = NPC library, therapeutic window: Control avg AUC minus VP-MCC avg AUC
[26] = NPC library, qHTS dose-response AUC, MKL1
[27] = NPC library, therapeutic window: Control avg AUC minus MCC avg AUC
[28] = NPC library, qHTS dose-response AUC, HACAT control
[29] = NPC library, qHTS dose-response AUC, UISO

In the case of `O=C(CCc1ccc(O)cc1)c1c(O)cc(O)cc1O` [Phloretin], the Control-VN-MCC ([1]; MIPE library, Control AUC minus VN-MCC AUC (therapeutic window), sheet S2E) was -6.696, the VN-MCC_Avg_AUC ([1]; MIPE library, sheet S2E) was 476.56 and the MKL2_AUC (MKL-2 cells (VP-MCC); [6]) was 410.273. For the same compound, the MKL2_AUC (MKL-2 cells (VP-MCC); [7]) was 410.273, the “Area under the dose-response curve (AUC) MKL-2 Replicate 1” value (MKL-2 cells (VP-MCC); follow-up screen, MKL-2, replicate 1) was 493.4 and the “Area under the dose-response curve (AUC) MKL-2 Replicate 2” value (MKL-2 cells (VP-MCC); follow-up screen, MKL-2, replicate 2) was 509.3. The “Area under the dose-response curve (AUC) MKL-2 Replicate 3” value (MKL-2 cells (VP-MCC); follow-up screen, MKL-2, replicate 3) was 493.0, the Control_Avg_AUC ([2]; MIPE library, sheet S2E) was 469.864 and the CRL7250_AUC (CRL-7250 cells; [8]) was 456.981. The CRL7250_AUC (CRL-7250 cells; [9]) was 456.981, the HEK293T_AUC (HEK293T cells; [8]) was 470.007 and the HEK293T_AUC (HEK293T cells; [10]) was 470.007. For the same compound, the NIH3T3_AUC (NIH-3T3 cells; [8]) was 475.685, the NIH3T3_AUC (NIH-3T3 cells; [11]) was 475.685 and the WAGA_AUC (WAGA cells (VP-MCC); [6]) was 402.295. The WAGA_AUC (WAGA cells (VP-MCC); [12]) was 402.295, the “Area under the dose-response curve (AUC) WAGA Replicate 1” value (WAGA cells (VP-MCC); follow-up screen, WAGA, replicate 1) was 571.8 and the “Area under the dose-response curve (AUC) WAGA Replicate 2” value (WAGA cells (VP-MCC); follow-up screen, WAGA, replicate 2) was 490.2. For the same compound, the “Area under the dose-response curve (AUC) WAGA Replicate 3” value (WAGA cells (VP-MCC); follow-up screen, WAGA, replicate 3) was 485.7, the MCC13_AUC (MCC13 cells (VN-MCC); [6]) was 472.315 and the MCC13_AUC (MCC13 cells (VN-MCC); [13]) was 472.315. For the same compound, the “Area under the dose-response curve (AUC) MCC13 Replicate 1” value (MCC13 cells (VN-MCC); follow-up screen, MCC13, replicate 1) was 534.6, the “Area under the dose-response curve (AUC) MCC13 Replicate 2” value (MCC13 cells (VN-MCC); follow-up screen, MCC13, replicate 2) was 495.7 and the “Area under the dose-response curve (AUC) MCC13 Replicate 3” value (MCC13 cells (VN-MCC); follow-up screen, MCC13, replicate 3) was 492.0. The MCC26_AUC (MCC26 cells (VN-MCC); [6]) was 472.357, the MCC26_AUC (MCC26 cells (VN-MCC); [14]) was 472.357 and the “Area under the dose-response curve (AUC) MCC26 Replicate 1” value (MCC26 cells (VN-MCC); follow-up screen, MCC26, replicate 1) was 472.4. The “Area under the dose-response curve (AUC) MCC26 Replicate 2” value (MCC26 cells (VN-MCC); follow-up screen, MCC26, replicate 2) was 446.6, the “Area under the dose-response curve (AUC) MCC26 Replicate 3” value (MCC26 cells (VN-MCC); follow-up screen, MCC26, replicate 3) was 497.7 and the Control-VP-MCC ([3]; MIPE library, Control AUC minus VP-MCC AUC (therapeutic window), sheet S2E) was 54.4642. It also gave a VP-MCC_Avg_AUC ([3]; MIPE library, sheet S2E) of 415.4, an MKL1_AUC (MKL-1 cells (VP-MCC); [6]) of 433.632 and an MKL1_AUC (MKL-1 cells (VP-MCC); area under the dose-response curve, MKL-1 cells, AUC<450 = reduced viability) of 433.632. The “Area under the dose-response curve (AUC) MKL-1 Replicate 1” value (MKL-1 cells (VP-MCC); follow-up screen, MKL-1, replicate 1) was 526.8, the “Area under the dose-response curve (AUC) MKL-1 Replicate 2” value (MKL-1 cells (VP-MCC); follow-up screen, MKL-1, replicate 2) was 492.2 and the “Area under the dose-response curve (AUC) MKL-1 Replicate 3” value (MKL-1 cells (VP-MCC); follow-up screen, MKL-1, replicate 3) was 497.0. For the same compound, the Control-MCC ([4]; MIPE library, Control AUC minus MCC AUC (therapeutic window), sheet S2E) was 23.8842, the HACAT_AUC (HACAT cells; [8]) was 476.785 and the HACAT_AUC (HACAT cells; [15]) was 476.785. For the same compound, the MCC_Avg_AUC ([5]; MIPE library, sheet S2E) was 445.98, the UISO_AUC (UISO cells (VN-MCC); [6]) was 485.008 and the UISO_AUC (UISO cells (VN-MCC); [16]) was 485.008. The “Area under the dose-response curve (AUC) UISO Replicate 1” value (UISO cells (VN-MCC); follow-up screen, UISO, replicate 1) was 542.5, the “Area under the dose-response curve (AUC) UISO Replicate 2” value (UISO cells (VN-MCC); follow-up screen, UISO, replicate 2) was 515.8 and the “Area under the dose-response curve (AUC) UISO Replicate 3” value (UISO cells (VN-MCC); follow-up screen, UISO, replicate 3) was 481.4.
`O=C1OC(CCN2CCCCC2)OC1(c1ccccc1)c1ccccc1` (centres unmarked) [Pipoxolan hydrochloride] showed a VN-MCC_Avg_AUC ([1]; NPC library) of 450.651, a Control-VN-MCC [1, 17] of 22.7364 and an MKL2_AUC (MKL-2 cells (VP-MCC); [18]) of 392.534. It also gave a Control_Avg_AUC ([2]; NPC library) of 473.388, a CRL7250_AUC (CRL-7250 cells; [19]) of 487.056 and an HEK293T_AUC (HEK293T cells; [20]) of 445.369. It also gave an NIH3T3_AUC (NIH-3T3 cells; [21]) of 468.074, a WAGA_AUC (WAGA cells (VP-MCC); [22]) of 433.006 and an MCC13_AUC (MCC13 cells (VN-MCC); [23]) of 478.552. It also gave an MCC26_AUC (MCC26 cells (VN-MCC); [24]) of 460.749, a VP-MCC_Avg_AUC ([3]; NPC library) of 421.002 and a Control-VP-MCC [3, 25] of 52.3854. For the same compound, the MKL1_AUC (MKL-1 cells (VP-MCC); [26]) was 437.466, the Control-MCC [4, 27] was 37.5609 and the HACAT_AUC (HACAT cells; [28]) was 493.052. For the same compound, the MCC_Avg_AUC ([5]; NPC library) was 435.827 and the UISO_AUC (UISO cells (VN-MCC); [29]) was 412.652.
`Cc1nc2ccccn2c(=O)c1CCN1CCC(C(=O)c2ccc(F)cc2)CC1` [Pirenperone] gave a VN-MCC_Avg_AUC ([1]; NPC library) of 426.258, a Control-VN-MCC [1, 17] of 40.1758 and an MKL2_AUC (MKL-2 cells (VP-MCC); [18]) of 400.974. It also gave an MKL2_AUC (MKL-2 cells (VP-MCC); [7]) of 400.974, a Control_Avg_AUC ([2]; NPC library) of 466.434 and a CRL7250_AUC (CRL-7250 cells; [19]) of 480.924. For the same compound, the CRL7250_AUC (CRL-7250 cells; [9]) was 480.924, the HEK293T_AUC (HEK293T cells; [20]) was 450.239 and the HEK293T_AUC (HEK293T cells; [10]) was 450.239. It also gave an NIH3T3_AUC (NIH-3T3 cells; [21]) of 477.551, an NIH3T3_AUC (NIH-3T3 cells; [11]) of 477.551 and a WAGA_AUC (WAGA cells (VP-MCC); [22]) of 415.843. It also gave a WAGA_AUC (WAGA cells (VP-MCC); [12]) of 415.843, an MCC13_AUC (MCC13 cells (VN-MCC); [23]) of 440.287 and an MCC13_AUC (MCC13 cells (VN-MCC); [13]) of 440.287. For the same compound, the MCC26_AUC (MCC26 cells (VN-MCC); [24]) was 401.594, the MCC26_AUC (MCC26 cells (VN-MCC); [14]) was 401.594 and the VP-MCC_Avg_AUC ([3]; NPC library) was 411.748. The Control-VP-MCC [3, 25] was 54.686, the MKL1_AUC (MKL-1 cells (VP-MCC); [26]) was 418.427 and the MKL1_AUC (MKL-1 cells (VP-MCC); {}) was 418.427. For the same compound, the Control-MCC [4, 27] was 47.4309, the HACAT_AUC (HACAT cells; [28]) was 457.02 and the HACAT_AUC (HACAT cells; [15]) was 457.02. It also gave an MCC_Avg_AUC ([5]; NPC library) of 419.003, a UISO_AUC (UISO cells (VN-MCC); [29]) of 436.893 and a UISO_AUC (UISO cells (VN-MCC); [16]) of 436.893.
